# Test results from patent publication US12421249B2, “Inhibitors of APOL1 and methods of using same” (Vertex Pharmaceuticals Incorporated, priority 2020, dated 2025).
# Biological target: T1, APOL1 (Homo sapiens, UniProt O14791)
# T1 sequence (O14791 1-398 S342G/I384M): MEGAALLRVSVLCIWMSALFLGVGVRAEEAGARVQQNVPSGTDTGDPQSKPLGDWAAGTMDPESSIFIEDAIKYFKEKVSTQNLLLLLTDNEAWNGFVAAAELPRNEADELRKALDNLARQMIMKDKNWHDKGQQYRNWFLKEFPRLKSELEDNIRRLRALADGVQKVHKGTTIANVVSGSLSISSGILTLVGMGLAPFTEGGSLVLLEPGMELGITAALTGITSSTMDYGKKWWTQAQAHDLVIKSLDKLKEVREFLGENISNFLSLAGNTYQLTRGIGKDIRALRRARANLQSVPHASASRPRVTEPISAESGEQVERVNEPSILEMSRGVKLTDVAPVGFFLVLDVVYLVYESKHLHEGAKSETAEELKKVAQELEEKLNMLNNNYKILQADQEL
# Assay: Multi-Tox Assay (MultiTox-Fluor Multiplex Cytotoxicity Assay in tet-inducible APOL1 T-REx-HEK293 cells; Table 46 does not say which APOL1 variant G0/G1/G2)
# Format: cell-based
# Settings: APOL1 variant not given; for IC50: IP50 = IC50 for cell proliferation
SMILES,IC90,Multi-Tox Assay Max Activity (%),IC50
C[C@@H](CO)CCn1cc([C@@H]2CC3(C[C@H](C)N2)OCC(F)(F)c2cc(Cl)sc23)nn1 (stereo in doubt) [Compound 338],< 50 nM,99.0%,< 50 nM
"C#C[C@@H]1C[C@]2(C[C@H](C)N1)OCCc1cc(Cl)sc12 [Compound 221, (2S,4S,6S)-2′-chloro-2-ethynyl-6-methyl-4′,5′-dihydrospiro[piperidine-4,7′-thieno[2,3-c]pyran]]",–,–,< 50 nM
"C#C[C@@H]1C[C@]2(C[C@H](C)N1)OC[C@@H](O)c1cc(Cl)sc12 [Compound 222, (2′S,4S,6′S,7S)-2-chloro-2′-ethynyl-6′-methyl-spiro[4,5-dihydrothieno[2,3-c]pyran-7,4′-piperidine]-4-ol]",–,–,50 to 500 nM
"C#C[C@@H]1C[C@]2(C[C@H](C)N1)OCC(F)(F)c1cc(Cl)sc12 [Compound 223, (2′S,6′S,7S)-2-chloro-2′-ethynyl-4,4-difluoro-6′-methyl-spiro[5H-thieno[2,3-c]pyran-7,4′-piperidine]]",–,–,> 500 nM
"C[C@H]1C[C@@]2(C[C@@H](c3cn(Cc4ccc(CO)cc4)nn3)N1)OC[C@@H](O)c1cc(Cl)sc12 [Compound 224, (2′S,4S,6′S,7S)-2-chloro-2′-[1-[[4-(hydroxymethyl)phenyl]methyl]triazol-4-yl]-6′-methyl-spiro[4,5-dihydrothieno[2,3-c]pyran-7,4′-piperidine]-4-ol]",–,–,50 to 500 nM
"C[C@H]1C[C@@]2(C[C@@H](c3cn(Cc4ccc(CO)cc4)nn3)N1)OCC(F)(F)c1cc(Cl)sc12 [Compound 225, (4-((4-((2S,4S,6S)-2′-chloro-4′,4′-difluoro-2-methyl-4′,5′-dihydrospiro[piperidine-4,7′-thieno[2,3-c]pyran]-6-yl)-1H-1,2,3-triazol-1-yl)methyl)phenyl)methanol]",–,97.0%,50 to 500 nM
COCC(O)Cn1cc([C@@H]2C[C@]3(C[C@H](C)N2)OC[C@@H](O)c2cc(Cl)sc23)nn1 (stereo partly shown) [Compound 226],–,100.0%,50 to 500 nM
C[C@H]1C[C@@]2(C[C@@H](c3cn(CC4CCCCO4)nn3)N1)OC[C@@H](O)c1cc(Cl)sc12 (stereo partly shown) [Compound 227],–,100.0%,50 to 500 nM
C[C@H]1C[C@@]2(C[C@@H](c3cn(CCCS(C)(=O)=O)nn3)N1)OC[C@@H](O)c1cc(Cl)sc12 [Compound 228],–,100.0%,50 to 500 nM
COCCOCCn1cc([C@@H]2C[C@]3(C[C@H](C)N2)OC[C@@H](O)c2cc(Cl)sc23)nn1 [Compound 229],–,98.0%,50 to 500 nM
CC(C)C(=O)NCCn1cc([C@@H]2C[C@]3(C[C@H](C)N2)OC[C@@H](O)c2cc(Cl)sc23)nn1 [Compound 230],–,98.0%,50 to 500 nM
C[C@H]1C[C@@]2(C[C@@H](c3cn(Cc4ccccc4S(C)(=O)=O)nn3)N1)OC[C@@H](O)c1cc(Cl)sc12 [Compound 231],–,95.0%,50 to 500 nM
C[C@H]1C[C@@]2(C[C@@H](c3cn(Cc4n[nH]c5ccccc45)nn3)N1)OC[C@@H](O)c1cc(Cl)sc12 [Compound 232],–,100.0%,< 50 nM
C[C@H]1C[C@@]2(C[C@@H](c3cn(CC4(O)CC4)nn3)N1)OC[C@@H](O)c1cc(Cl)sc12 [Compound 233],–,100.0%,50 to 500 nM
C[C@H]1C[C@@]2(C[C@@H](c3cn(Cc4ncnc5[nH]ccc45)nn3)N1)OC[C@@H](O)c1cc(Cl)sc12 [Compound 234],–,100.0%,< 50 nM
Cc1cc(C)nc(CCn2cc([C@@H]3C[C@]4(C[C@H](C)N3)OC[C@@H](O)c3cc(Cl)sc34)nn2)c1 [Compound 235],–,100.0%,< 50 nM
C[C@H]1C[C@@]2(C[C@@H](c3cn(Cc4ccc(C#N)nc4)nn3)N1)OC[C@@H](O)c1cc(Cl)sc12 [Compound 236],–,100.0%,< 50 nM
Cc1noc(C)c1Cn1cc([C@@H]2C[C@]3(C[C@H](C)N2)OC[C@@H](O)c2cc(Cl)sc23)nn1 [Compound 237],–,99.0%,< 50 nM
C[C@H]1C[C@@]2(C[C@@H](c3cn(Cc4ccc(S(C)(=O)=O)cc4)nn3)N1)OC[C@@H](O)c1cc(Cl)sc12 [Compound 238],–,–,50 to 500 nM
C[C@H]1C[C@@]2(C[C@@H](c3cn(CC(=O)N4CCCCC4)nn3)N1)OC[C@@H](O)c1cc(Cl)sc12 [Compound 239],–,97.0%,50 to 500 nM
C[C@H]1C[C@@]2(C[C@@H](c3cn(CC4(CO)CCOCC4)nn3)N1)OC[C@@H](O)c1cc(Cl)sc12 [Compound 240],–,95.0%,50 to 500 nM
C[C@H]1C[C@@]2(C[C@@H](c3cn(CCS(=O)(=O)Nc4ccccc4)nn3)N1)OC[C@@H](O)c1cc(Cl)sc12 [Compound 241],50 to 500 nM,97.0%,< 50 nM
C[C@H]1C[C@@]2(C[C@@H](c3cn(CC4(CO)CC4)nn3)N1)OC[C@@H](O)c1cc(Cl)sc12 [Compound 242],–,97.0%,50 to 500 nM
